Laboratory results: BindingDB's records for doi:10.1021/bi00445a011 (Harvard University, 1989)

Biological target: T1, 3-dehydroquinate synthase (Escherichia coli (strain K12), UniProt P07639)
T1 sequence (P07639 whole entry): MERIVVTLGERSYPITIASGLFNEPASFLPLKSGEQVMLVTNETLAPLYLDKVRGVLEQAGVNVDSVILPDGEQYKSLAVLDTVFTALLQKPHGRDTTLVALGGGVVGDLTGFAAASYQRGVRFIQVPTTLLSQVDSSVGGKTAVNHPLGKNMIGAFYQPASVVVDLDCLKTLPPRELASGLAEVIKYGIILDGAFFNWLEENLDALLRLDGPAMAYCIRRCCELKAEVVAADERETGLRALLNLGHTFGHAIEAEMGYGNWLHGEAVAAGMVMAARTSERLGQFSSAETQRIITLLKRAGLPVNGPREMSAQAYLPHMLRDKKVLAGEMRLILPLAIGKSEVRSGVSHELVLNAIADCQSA
Assay: Enzyme Inhibition
Excerpt: Enzyme inhibition using dehydroquinate synthase.

Q: With `O=C(O)C1(O)CC(O)C(O)C(CP(=O)(O)O)O1` (configuration not stated) [2,4,5-trihydroxy-6-(phosphonatomethyl)oxane-2-carboxylate, 4] as the compound, how does the Ki read?
A: The Ki was 0.12 µM.

Q: `O=C(O)C1CC(O)C(O)C(CP(=O)(O)O)O1` (configuration not stated) [4,5-dihydroxy-6-(phosphonatomethyl)oxane-2-carboxylate, 3] was tested. Which Ki did it give?
A: The Ki was 35 µM.
